Source: patent publication US10093629B2, “Heterocyclic compounds and their use as retinoid-related orphan receptor (ROR) gamma-T inhibitors” (Takeda Pharmaceutical Company Limited, priority 2014, dated 2018)

Legend:
RORγt [1] = target: T1, RORγt (Homo sapiens, UniProt P51449); assay: Cofactor recruitment test (Alpha Screen, biotinylated SRC-1 peptide); type: biochemical; settings: test compound 1 μM; read-out: signal value inhibitory rate at test compound 1 μM
T1 sequence (P51449 1-497 isoform P51449-2): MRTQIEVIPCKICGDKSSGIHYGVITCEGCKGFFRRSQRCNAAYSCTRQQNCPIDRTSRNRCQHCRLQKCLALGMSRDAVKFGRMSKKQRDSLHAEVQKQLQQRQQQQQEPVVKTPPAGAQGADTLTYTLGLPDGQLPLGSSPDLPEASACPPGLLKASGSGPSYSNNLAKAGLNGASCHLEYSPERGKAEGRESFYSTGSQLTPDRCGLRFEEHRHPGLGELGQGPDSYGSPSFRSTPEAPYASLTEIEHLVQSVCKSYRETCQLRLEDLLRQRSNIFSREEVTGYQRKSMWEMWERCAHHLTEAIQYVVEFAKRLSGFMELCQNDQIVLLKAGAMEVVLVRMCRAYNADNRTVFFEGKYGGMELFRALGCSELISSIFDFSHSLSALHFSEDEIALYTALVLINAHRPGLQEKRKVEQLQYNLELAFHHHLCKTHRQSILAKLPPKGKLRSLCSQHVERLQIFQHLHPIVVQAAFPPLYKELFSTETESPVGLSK
Experimental: Cofactor Recruitment Test
Cofactor recruitment test was performed by Alpha Screen (Histidine Detection Kit, PerkinElmer) method. First, a test compound was diluted with an assay buffer (50 mM Tris-HCl (pH 7.5), 50 mM KCl, 1 mM DTT, 0.1% BSA) and added to a 384 well plate by 5 μL. […] The mixture was stood in a dark place for 1 hr, and the signal value was measured by Envision (PerkinElmer).

RORγt [2] = target: T1, RORγt; assay: RORγt binding test using fluorescent-labeled synthetic ligand (TR-FRET); settings: test compound 1 μM; read-out: binding inhibitory rate of fluorescent-labeled synthetic ligand to RORγt at test compound 1 μM
[3] = tested on: IL-23-induced mouse psoriasis model; assay: IL-23-induced mouse psoriasis model; type: in vivo; settings: Balb/c mice, versus the negative control group; for percent inhibition of IL-17A expression: ear tissue
Experimental: Effect in an IL-23-Induced Mouse Psoriasis Model
Mouse IL-23 (500 ng/15 μL, R&D) or PBS (15 μL, negative control group) was administered intradermally in the ear of Balb/c mice (Charles River Japan, male, 7 weeks old) 5 times every other days. Seven hr after IL-23 administration at 8 days after the initial administration (final administration), the mice were anesthetized with isoflurane, and ear thickness was measured with calipers. After the ear thickness was measured, the ear was resected, tissue 8 mm in diameter was punched from an area centering on the IL-23 injection site, and the tissue was weighed. The punched ear tissue was cut in half, and one half was immersion-fixed in 10% neutral buffer formalin solution for use in histopathological evaluation. The other half was immersed in RNAlater (QIAGEN) for at least 18 hr for use in an evaluation of the IL-17A mRNA expression level. The test compound was suspended in 0.5% methylcellulose and administered orally twice daily on consecutive days from 30 min before the initial IL-23 administration to 30 min before the final IL-23 administration.
The change in ear thickness in this model was evaluated by calculating the difference in measured thickness between before IL-23 administration and 7 hr after the final IL-23 administration. In addition, the formalin-fixed tissue was embedded and sectioned, then stained with hematoxylin-eosin. The degree of acanthosis was then evaluated qualitatively by microscopy (classified with a score of 0 to 4). RNA extraction from the ear tissue and quantitative PCR were performed as follows. As described above, ear tissue treated with RNAlater (QIAGEN) was homogenized in 350 μL of RLT buffer (RNeasy mini kit, QIAGEN) and treated (55° C., 10 min) with Proteinase K (QIAGEN). Total RNA was then extracted according to the RNeasy mini kit protocol. The RNA thus obtained was reverse transcribed into cDNA using the High-Capacity RNA-to-cDNA kit (Applied Biosystems), and the expression of each gene was measured by real-time PCR (Viia7™, Applied Biosystems). The PCR buffer used was TaqMan Fast Advanced Master Mix (Applied Biosystems), and TaqMan Gene Expression Assays (Applied Biosystems) Mm00439618_m1 (IL-17A) and 4352341E (β-actin) were used to detect the genes. The IL-17A gene expression level was normalized to the β-actin gene expression level, and the percent inhibition of IL-17A gene expression with the test compound was then calculated.
The results (percent inhibition of ear thickness, acanthosis score and IL-17A gene expression with oral administration of the test compound) measured by the above-mentioned method are shown in Table 10.

RORγt [4] = target: T1, RORγt; assay: Jurkat reporter test (human IL-17 ROR response element luciferase, RORγt vector); type: cell-based; settings: Jurkat, test compound 3 μM; Jurkat cells; read-out: luminescence level inhibitory rate at test compound 3 μM
In short: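 Luminescence (Bright-Glo, 10 min, RT) was measured after overnight compound treatment of electroporated Jurkat cells (1350 V, 10 ms interval, 3 pulses). The reaction medium was RPMI with 10% lipid-reduced FCS, 10 mM HEPES (pH 7.5) and 5 μM lovastatin.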

[5] = tested on: IL-17 production in human blood; assay: Effect on IL-17 production in human blood; type: cell-based; settings: 72 h; 10 μM test compound; human peripheral blood, IL-23 and Dynabeads stimulation, 3 days; read-out: percent inhibition at 10 μM (IL-17 production)
Experimental: Effect on IL-17 Production in Human Blood
The inhibitory effect of the test compound on IL-17 production in human blood was evaluated as follows. First, 150 μL of peripheral blood collected from healthy individuals using heparinized vacuum blood collection tubes was dispensed into each well of a 96-well plate (Corning), and 45 μL of RPMI 1640 medium (Gibco) containing 10% fetal bovine serum (FBS, Hyclone) and 30 μL of the test compound diluted with the medium were added to each well. The plate was then cultured for 30 min at 37° C. The cells were subsequently stimulated by adding 30 μL of 100 ng/mL human IL-23 (R&D) and 45 μL of Dynabeads Human (Invitrogen) to each well and culturing the plate for 3 days at 37° C. In wells without stimulation, 75 μL of RPMI 1640 medium containing 10% FBS was added instead of the IL-23 and Dynabeads solution. After culturing for 3 days, the culture supernatant was collected, and the amount of IL-17 in the supernatant was measured using an IL-17 ELISA kit (R&D).
The results (percent inhibition of IL-17 production with 10 μM of the test compound) measured by the above-mentioned method are shown in Table 8.

IL-17A gene expression = assay: Effect on IL-23-induced cytokine expression in mice; type: in vivo, mouse; settings: 10 mg/kg oral, 30 min before and 8 hr after IL-23; ear of Balb/c mice; versus the negative control group
Experimental: Effect on IL-23-Induced Cytokine Expression in Mice
A mouse IL-23 solution (500 ng/10 μL, prepared by Takeda Pharmaceutical Company Limited) or PBS (10 μL, negative control group) was administered intradermally in the ear of Balb/c mice (Charles River Japan, male, 7 weeks old). Twenty-four hr after administration, the ear was resected under isoflurane anesthesia. The test compound was suspended in 0.5% methylcellulose and administered orally 30 min before and 8 hr after IL-23 administration.
RNA extraction from the ear tissue and quantitative PCR were performed as follows. Specifically, ear tissue 5 mm in diameter was punched from an area of the resected ear centering on the IL-23 injection site, and the tissue was immersed in RNAlater (QIAGEN) for at least 18 hr. The RNAlater-treated ear tissue was homogenized in 350 μL of RLT buffer (RNeasy mini kit, QIAGEN) and treated (55° C., 10 min) with Proteinase K (QIAGEN). Total RNA was then extracted according to the RNeasy mini kit protocol. The RNA thus obtained was then reverse transcribed into cDNA using the High-Capacity RNA-to-cDNA kit (Applied Biosystems), and the amount of each gene expressions was measured by real-time PCR (Viia7™, Applied Biosystems). The PCR buffer used was TaqMan Fast Advanced Master Mix (Applied Biosystems), and TaqMan Gene Expression Assays (Applied Biosystems) Mm00439618_m1 (IL-17A) and 4352341E (β-actin) were used for each gene detection. The IL-17A gene expression level was normalized to the β-actin gene expression level, and the percent inhibition of IL-17A gene expression with the test compound was then calculated.
The results (percent inhibition of IL-17A gene expression with oral administration of the test compound) measured by the above-mentioned method are shown in Table 9.

Row | inhibition at 1 µM (RORγt [1]) [%] | inhibition at 1 µM (RORγt [2]) [%] | inhibition at 3 µM (RORγt [4]) [%] | Compound | percent inhibition of acanthosis score ([3]; 10 mg/kg oral twice daily) [%] | percent inhibition of ear thickness ([3]; 10 mg/kg oral twice daily) [%] | percent inhibition of IL-17A expression ([3]; 10 mg/kg oral twice daily) [%] | inhibition at 10 µM [5] [%] | percent inhibition of IL-17A gene expression (IL-17A gene expression) [%] | percent inhibition of acanthosis score ([3]; 1 mg/kg oral twice daily) [%] | percent inhibition of ear thickness ([3]; 1 mg/kg oral twice daily) [%] | percent inhibition of IL-17A expression ([3]; 1 mg/kg oral twice daily) [%]
1 | 54 | 102 | 97 | COc1ccc2c(n1)CCN(C(=O)[C@H]1C[C@@H]1CC(=O)O)[C@H]2C(=O)Nc1cc(F)c2c(c1)CCC2(C)C [Example 6, ((1R,2S)-2-(((5R)-5-((7-fluoro-1,1-dimethyl-2,3-dihydro-1H-inden-5-yl)carbamoyl)-2-methoxy-7,8-dihydro-1,6-naphthyridin-6(5H)-yl)carbonyl)cyclopropyl)acetic acid] | 39 | 64 | 111 | 86.6 | – | – | – | –
2 | – | – | – | COc1ccc2c(n1)CCN(C(=O)[C@H]1C[C@@H](C(=O)O)C1)[C@H]2C(=O)Nc1cc(F)c2c(c1)CCC2(C)C [Example 10, cis-3-(((5R)-5-((7-fluoro-1,1-dimethyl-2,3-dihydro-1H-inden-5-yl)carbamoyl)-2-methoxy-7,8-dihydro-1,6-naphthyridin-6(5H)-yl)carbonyl)cyclobutanecarboxylic acid] | – | – | – | 89.7 | 87 | 47 | 52 | 91
3 | 82 | 101 | 99 | COCc1ccc2c(c1)CCN(C(=O)[C@H]1C[C@@H](CC(=O)O)C1)[C@H]2C(=O)Nc1cc(F)c2c(c1)CCC2(C)C [Example 19, (cis-3-(((1R)-1-((7-fluoro-1,1-dimethyl-2,3-dihydro-1H-inden-5-yl)carbamoyl)-6-(methoxymethyl)-3,4-dihydroisoquinolin-2(1H)-yl)carbonyl)cyclobutyl)acetic acid] | 29 | 40 | 94 | 94.1 | – | – | – | –
